Here are results for three compounds from ChEMBL document CHEMBL1125967, “Total synthesis of L-2,2-difluoro-2-deoxy-MYO-inositol 1,4,5-trisphosphate, a potent inhibitor of the enzymes of d-MYO-inositol 1,4,5-trisphosphate metabolism” (Bioorg Med Chem Lett, 1991).

Assay [1] addresses Inositol 1,4,5-trisphosphate-gated calcium channel ITPR3 (Homo sapiens, UniProt Q14573). In words: Compound was evaluated for its effective dose to inhibit the calcium release as a measure of affinity for Ins(1,4,5)P3 receptor. The class given is functional.
Assay [2] concerns the target Inositol 1,4,5-trisphosphate receptor (Homo sapiens, UniProt Q14571+Q14573+Q14643). In words: Compound was evaluated for its effective dose to inhibit the calcium release as a measure of affinity for Inositol 1,4,5-trisphosphate receptor. The assay is classed as functional.
Assay [3] deals with T1, Inositol polyphosphate-5-phosphatase A (Homo sapiens, UniProt Q14642).
T1 sequence (Q14642 whole entry): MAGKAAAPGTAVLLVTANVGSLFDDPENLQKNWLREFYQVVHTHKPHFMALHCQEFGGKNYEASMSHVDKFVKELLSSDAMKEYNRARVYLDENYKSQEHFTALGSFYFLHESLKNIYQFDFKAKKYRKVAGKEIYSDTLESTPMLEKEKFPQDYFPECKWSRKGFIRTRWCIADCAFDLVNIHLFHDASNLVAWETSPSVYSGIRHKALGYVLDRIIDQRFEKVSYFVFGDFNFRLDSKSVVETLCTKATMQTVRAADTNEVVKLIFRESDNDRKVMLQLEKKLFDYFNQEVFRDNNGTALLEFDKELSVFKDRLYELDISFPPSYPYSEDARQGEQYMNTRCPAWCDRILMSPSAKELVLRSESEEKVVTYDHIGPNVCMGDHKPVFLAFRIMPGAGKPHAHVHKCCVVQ
Description: Compound was evaluated for binding affinity towards Inositol-1,4,5-trisphosphate 5-phosphatase.

Assay [4] is described as follows: Inhibition of inositol-trisphosphate phosphorylation. Further details: species or system Rattus norvegicus.

Inositol 1,4,5-trisphosphate-gated calcium channel ITPR3, sequence (Q14573 whole entry): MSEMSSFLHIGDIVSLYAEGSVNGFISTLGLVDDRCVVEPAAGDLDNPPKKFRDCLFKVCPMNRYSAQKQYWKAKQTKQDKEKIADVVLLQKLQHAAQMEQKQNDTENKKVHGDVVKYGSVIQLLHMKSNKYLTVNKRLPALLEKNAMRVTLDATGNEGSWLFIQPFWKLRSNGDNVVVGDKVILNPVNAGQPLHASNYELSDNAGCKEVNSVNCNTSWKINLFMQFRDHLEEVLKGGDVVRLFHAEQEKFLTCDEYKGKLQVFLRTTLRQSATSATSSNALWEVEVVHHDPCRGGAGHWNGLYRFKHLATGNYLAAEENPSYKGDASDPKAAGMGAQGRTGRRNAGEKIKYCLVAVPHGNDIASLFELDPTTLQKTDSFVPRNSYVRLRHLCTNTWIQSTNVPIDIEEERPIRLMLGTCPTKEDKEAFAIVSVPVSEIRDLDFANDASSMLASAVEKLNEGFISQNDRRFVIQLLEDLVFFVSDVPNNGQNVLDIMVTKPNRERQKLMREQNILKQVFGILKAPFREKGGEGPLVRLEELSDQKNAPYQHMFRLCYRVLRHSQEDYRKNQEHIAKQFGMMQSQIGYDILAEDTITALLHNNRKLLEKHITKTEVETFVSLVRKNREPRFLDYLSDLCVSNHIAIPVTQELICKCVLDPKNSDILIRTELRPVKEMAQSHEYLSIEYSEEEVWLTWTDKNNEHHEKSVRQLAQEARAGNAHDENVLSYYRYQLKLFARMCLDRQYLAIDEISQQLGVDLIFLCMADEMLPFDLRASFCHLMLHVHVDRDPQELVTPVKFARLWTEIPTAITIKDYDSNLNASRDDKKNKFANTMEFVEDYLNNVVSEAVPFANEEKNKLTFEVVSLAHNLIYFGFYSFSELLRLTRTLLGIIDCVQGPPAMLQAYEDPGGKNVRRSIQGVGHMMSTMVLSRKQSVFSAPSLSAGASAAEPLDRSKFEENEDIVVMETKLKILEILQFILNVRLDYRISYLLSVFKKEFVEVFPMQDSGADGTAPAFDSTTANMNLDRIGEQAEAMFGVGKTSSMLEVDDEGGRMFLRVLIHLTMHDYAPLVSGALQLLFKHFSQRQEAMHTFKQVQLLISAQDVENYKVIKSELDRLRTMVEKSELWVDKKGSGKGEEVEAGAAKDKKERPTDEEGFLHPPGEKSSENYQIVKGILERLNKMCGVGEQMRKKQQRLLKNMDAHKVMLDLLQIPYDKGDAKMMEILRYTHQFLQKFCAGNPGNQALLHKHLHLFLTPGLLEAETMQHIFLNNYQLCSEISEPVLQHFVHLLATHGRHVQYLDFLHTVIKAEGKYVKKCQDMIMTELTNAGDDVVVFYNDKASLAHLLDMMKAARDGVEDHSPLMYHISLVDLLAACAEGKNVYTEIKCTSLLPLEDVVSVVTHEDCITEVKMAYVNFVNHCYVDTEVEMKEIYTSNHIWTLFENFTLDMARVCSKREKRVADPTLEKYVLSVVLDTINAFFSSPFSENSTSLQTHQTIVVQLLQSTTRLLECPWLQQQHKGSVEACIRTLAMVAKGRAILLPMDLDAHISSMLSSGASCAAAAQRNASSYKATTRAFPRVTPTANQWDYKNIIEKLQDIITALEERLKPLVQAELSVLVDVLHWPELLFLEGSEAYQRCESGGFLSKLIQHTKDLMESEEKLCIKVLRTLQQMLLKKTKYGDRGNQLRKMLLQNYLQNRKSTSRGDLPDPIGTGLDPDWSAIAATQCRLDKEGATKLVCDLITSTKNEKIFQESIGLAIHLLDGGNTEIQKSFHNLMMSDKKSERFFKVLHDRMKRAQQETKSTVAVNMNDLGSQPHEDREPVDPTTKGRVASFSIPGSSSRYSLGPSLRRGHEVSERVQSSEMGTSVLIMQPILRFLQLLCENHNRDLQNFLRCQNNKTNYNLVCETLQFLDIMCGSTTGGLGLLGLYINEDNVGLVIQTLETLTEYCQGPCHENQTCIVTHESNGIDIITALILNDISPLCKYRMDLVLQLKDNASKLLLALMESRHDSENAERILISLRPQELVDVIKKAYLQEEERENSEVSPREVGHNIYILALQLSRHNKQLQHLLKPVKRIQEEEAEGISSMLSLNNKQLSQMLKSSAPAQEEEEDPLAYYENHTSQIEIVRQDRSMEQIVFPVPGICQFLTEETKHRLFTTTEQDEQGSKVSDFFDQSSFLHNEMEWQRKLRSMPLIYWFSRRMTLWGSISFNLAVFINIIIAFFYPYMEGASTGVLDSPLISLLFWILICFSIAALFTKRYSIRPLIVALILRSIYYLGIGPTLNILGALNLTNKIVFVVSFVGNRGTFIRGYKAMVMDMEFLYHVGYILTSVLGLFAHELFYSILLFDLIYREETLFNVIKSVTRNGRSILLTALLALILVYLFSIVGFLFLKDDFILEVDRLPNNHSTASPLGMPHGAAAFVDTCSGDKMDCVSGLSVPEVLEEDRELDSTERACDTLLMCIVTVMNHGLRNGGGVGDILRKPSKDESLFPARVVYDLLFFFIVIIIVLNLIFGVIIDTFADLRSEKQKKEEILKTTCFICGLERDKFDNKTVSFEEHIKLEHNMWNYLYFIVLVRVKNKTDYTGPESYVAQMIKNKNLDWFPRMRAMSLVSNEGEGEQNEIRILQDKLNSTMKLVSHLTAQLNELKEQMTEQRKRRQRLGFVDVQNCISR

The EC50 is the concentration needed to bring the measured effect to its halfway point. Take `O=P(O)(O)OC1C(O)C(OP(=O)(O)O)C(F)(F)C(O)C1OP(=O)(O)O` (stereo not given): in assay [1], the EC50 is 0.21 µM.
In the case of `O=P(O)(O)OC1C(O)C(OP(=O)(O)O)C(F)(F)C(O)C1OP(=O)(O)O` (stereo in doubt), the EC50 in assay [2] worked out at 0.41 µM.
Broadly, the Ki is the dissociation constant of the complex between target and ligand, obtained from inhibition or displacement. Read a high Ki as weaker binding. For `O=P(O)(O)OC1C(O)C(OP(=O)(O)O)C(F)(F)C(O)C1OP(=O)(O)O` (stereo in doubt; L-(4b)), in assay [2], the EC50 is 53 µM. The Ki is 26 µM in assay [3] and 11.5 µM in assay [4].
